The numbers were not newly measured in paper PMC10017685 (Nature Communications, 2023), which cites them from elsewhere.

The test system of one series is human erythrocytes. Details: method as in DBAASP. The conditions noted are these: cited from earlier work.
As for IAGKIAKIAGKIAKIAGKIAK [DBAASP_14998], the “Class (dedicated toxicity dataset used for toxicity classifier evaluation)” value (“Class” for short) was 0. As for GILSSLLKKLKKIIAK [DBAASP_8905], the “Class” value is recorded as 0. For GIMSSLMKKLKKIIKK [DBAASP_8904], the “Class” value is recorded as 0. Regarding IAKIAGKIAKIAGKIAK [DBAASP_14997], the “Class” value is 0.

The same series, now with this note: toxicity class label 1 or 0, meaning of the labels not given; DBAASP HC50 data, human erythrocytes; ref DBAASP; cited from earlier work.
As to KIAKGALKALKIAKGALKAL [DBAASP_11229], the “Class” value was 0. On to HFLGTLVNLAKKIK [DBAASP_5026], for which the “Class” value is given as 0. Consider GLFDVIKKLLKKIGGL [DBAASP_8593], for which the “Class” value is 1.

Turning to FLPIIGQLLSGLL [DBAASP_4222], the “Class” value was 0. For the sequence GWLDVAKKIGKAAFNVAKNFL [DBAASP_10137], the “Class” value is 0.

Turning to RQIRIWFQNRRMRWRR [DBAASP_8798], the “Class” value is 0. For the sequence KLLKRIKTLL [DBAASP_3149], the “Class” value is reported as 0. As for VKRFKKFFRKLKKSV [DBAASP_4328], the “Class” value is listed as 0. Turning to KKVLKAAA [DBAASP_7365], the “Class” value is 1.

Regarding FLKGIVGMLGKLW [DBAASP_9113], the “Class” value was 1. Consider GFKDLLKGAAKALKKTVLF [DBAASP_4908], for which the “Class” value is 0. In the case of FPLTWLKWWKWKK [DBAASP_17184], the “Class” value is 0. With GLFDIIKKIAESF [DBAASP_779], the “Class” value is 0. Regarding WWWLRRIR [DBAASP_10635], the “Class” value is 0.

For the sequence FLGALIKGAIHGGRFIHGMIQNHH [DBAASP_1413], the “Class” value is listed as 0. On to HFLKTLVNLAKKIL [DBAASP_5017], for which the “Class” value is 0.

As for KWKLFKKIFKRIVQRIKDFLRN [DBAASP_9530], the “Class” value was 0.

As for GLLKRIKLLL [DBAASP_3143], the “Class” value is listed as 0.

As for LLGPVLGLVSNVLGGLL [DBAASP_12136], the “Class” value is 0.

In the case of GLLKVIKTLL [DBAASP_3135], the “Class” value is on record as 0. Regarding ITEVITILLNRLTDRLEK [DBAASP_13425], the “Class” value is listed as 0. Turning to GIMSSLMKKLKAHIAK [DBAASP_8894], the “Class” value was 0.

For the sequence RIRIRWIIR [DBAASP_17706], the “Class” value is listed as 0. Take RQIKIWFQNRRLKWKK [DBAASP_8797]: the “Class” value is listed as 0. With FLQHIIGALSHFF [DBAASP_10247], the “Class” value is 0.

Regarding FLWALFKVASK [DBAASP_646], the “Class” value is 0.

As for FFGSVLKLIPKIL [DBAASP_5799], the “Class” value is listed as 0. As to GLLDTLKGAAKNVVGSLASKVMEKL [DBAASP_4394], the “Class” value is 0. Take GFKDLLKGAAKALVKTVLF [DBAASP_2302]: the “Class” value is on record as 0. In the case of HKLGTLVNLAKKIL [DBAASP_5015], the “Class” value is listed as 0.

For FLPIVGKLLSGLF [DBAASP_1883], the “Class” value is 0. Consider SAVLRHLRRFLLRKHRKH [DBAASP_7661], for which the “Class” value is 0. For the sequence GLLKRIKKLLKKIKKLL [DBAASP_8595], the “Class” value is given as 1. For LWKIGKKIWRVLWNWR [DBAASP_17519], the “Class” value is 1. Turning to IKNAKVCVYAVCVSHK [DBAASP_12238], the “Class” value is 0.

Take VKKFPWWWAFLKK [DBAASP_11305]: the “Class” value is 0. As to FIHHIIGGLFSVGKHIHSLIHGH [DBAASP_12673], the “Class” value is 1. For the sequence RWFRIQLQIRRWRNRR [DBAASP_8807], the “Class” value is given as 0. On to GIMSSLMKKLAAIIAK [DBAASP_8899], for which the “Class” value is given as 0.

As to FFHHAFRGIVHVGKTIHRLVTG [DBAASP_9003], the “Class” value is recorded as 0. Turning to GLLKKIKKLL [DBAASP_7429], the “Class” value is listed as 0.

As to GIWKTIKSMGKVFAGAILQNL [DBAASP_704], the “Class” value is on record as 0. For the sequence GLLDLLKLLLKAAG [DBAASP_12756], the “Class” value was 0. For the sequence GIKDWIKGAAKKLIKTVASHIANQ [DBAASP_2305], the “Class” value was 0. In the case of GLLKLIKTLL [DBAASP_3136], the “Class” value was 1.

As to VKKFPWWWPFLKK [DBAASP_5136], the “Class” value is reported as 0. Consider IKKIVSKIKKLLK [DBAASP_7245], for which the “Class” value was 0. For the sequence FLPLIAGVAANFLPKIFCLISKKC [DBAASP_6168], the “Class” value is on record as 1.

For the sequence GLLKRIKT [DBAASP_13874], the “Class” value is 0. In the case of WKKIWSKIKKLLK [DBAASP_7155], the “Class” value is listed as 0.

For the sequence FLGAIAGVAAKFLPKVFCFITKKC [DBAASP_6167], the “Class” value is 1.

For the sequence GLNALKKVFQGIHEAFKLINNHVQ [DBAASP_6936], the “Class” value is given as 0. Take WKIFKLKLRMLW [DBAASP_13717]: the “Class” value is given as 1. In the case of GLLKRIKFLL [DBAASP_3145], the “Class” value is 0.

On to KFLGTLVNLAKKIL [DBAASP_5014], for which the “Class” value was 0. With GLKALKKVFQGIHEAIKLINNHVQ [DBAASP_6923], the “Class” value is listed as 0. In the case of LLGMIPLAISAISALSKL [DBAASP_3893], the “Class” value is on record as 0. FFGKVLKLIRKIF [DBAASP_2255]: the “Class” value is 1. Turning to VCKRWKKWKRKWKKWCV [DBAASP_16449], the “Class” value was 0.

Regarding FFRLLFHGVHHVGKIKPRA [DBAASP_1429], the “Class” value was 0. Regarding GIMSSLMKKLAKIIAK [DBAASP_8900], the “Class” value was 0. KWFKIQLQIKKWKNKK [DBAASP_8806]: the “Class” value is reported as 0. As for SAVWRRWRRFWLRKRRKR [DBAASP_9990], the “Class” value is recorded as 0. For FLPKWALKWAAK [DBAASP_16468], the “Class” value is on record as 0. Regarding FLKGIVGKLGKLF [DBAASP_9110], the “Class” value is 0. As to FFHHVFRGIVHVGKTIHRLVTG [DBAASP_9006], the “Class” value is on record as 0. Turning to VRRFPAAAPFLRR [DBAASP_14271], the “Class” value is reported as 0. For HFLGTLVNLAKKKL [DBAASP_5025], the “Class” value is 0. Consider FWSTLLSIGKSLL [DBAASP_18163], for which the “Class” value was 1.

As to GLLKRIKVLL [DBAASP_3142], the “Class” value is on record as 0. For GFKKLLKGAAKALVKTVLF [DBAASP_4900], the “Class” value is reported as 1. On to GMMKRIKTMM [DBAASP_8621], for which the “Class” value was 0. As for GVWSTILGGLKKFAKGGLDAIVNPK [DBAASP_5716], the “Class” value was 0. For VKWRWKWKWRWKWKWKV [DBAASP_8777], the “Class” value is listed as 0. Take RWWLRRIW [DBAASP_10630]: the “Class” value is listed as 0.

With GLVGTLLGHIGKAILG [DBAASP_5369], the “Class” value is 0. Take GWKKWLRKGAKHLGQAAIK [DBAASP_1434]: the “Class” value is 0. On to VRRFPWAWPFLRR [DBAASP_14266], for which the “Class” value is recorded as 0. FFRLLFHGVHHGGGYLNAA [DBAASP_1428]: the “Class” value is 0. Turning to GLGSVLGKALKIGANLL [DBAASP_3821], the “Class” value is 0. As for “FIHHAAGGLFSAGKAIHRLIRRRRR [DBAASP_17363]”, the “Class” value is recorded as 0.

In the case of GMLKRIKTLM [DBAASP_8626], the “Class” value was 0. GKLSSLWKKLKKIIAK [DBAASP_8915]: the “Class” value was 0. For GIWKTIKSMGKVFAGKIKQNL [DBAASP_703], the “Class” value is listed as 0. With ILGKLLSTAAGLLSKL [DBAASP_4364], the “Class” value is 0. Regarding SKVWRHWRRFWHRAHRKK [DBAASP_8105], the “Class” value is given as 0.
